# Test results published in patent US20260285853A1, “COMPOUNDS AND METHODS FOR MODULATING SPLICING” (REMIX THERAPEUTICS INC., priority 2023, published 2026).
# pIC50: −log10 of the molar value. Where two headings read alike, the source gives them in different places.
# How the values were obtained:
# Format in all cases: cell-based
# [1] = tested on: SH-SY5Y (human neuroblastoma) cells; test: Cell viability, Cell Titer Glo 2.0 assay; conditions: read-out: Viability SHSY5Y.3 GI50
# Outline: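 Viability was read by CellTiter-Glo 2.0 luminescence after a 72-hour compound exposure at 37° C. under 5% CO2. Cells were in IMDM plus 10% FBS containing 0.1% DMSO, and medium-only wells gave the blank.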
# [2] = tested on: HTT mRNA; test: Splicing RT-qPCR assay (THP), Table 2A
# [3] = tested on: MYB mRNA; test: Splicing RT-qPCR assay (THP), Table 2A
# [4] = tested on: MYB mRNA; test: Gene panel canonical junction qPCR assay, decrease in CJ mRNA, Table 3
# Outline: (§1)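 IC50 denotes the concentration giving 50% decrease in canonical-junction mRNA, fitted by 4-parameter logistic to percentage response derived from ΔΔCt versus housekeeping gene and DMSO control. Cells (A673 or K562) exposed 24 h to 11-point 3-fold serial dilutions from 10 uM top, DMSO ≤0.25%; junction-spanning primer/probe qPCR.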
# [5] = tested on: HTT mRNA; test: as above
# Outline: as §1
# [6] = Table 2A, THP, HTT alternative junction (AJ) mRNA, read-out: HTT AJ (AC50, increase in alternative junction mRNA)
# [7] = Table 2A, THP, HTT canonical junction (CJ) mRNA, read-out: HTT CJ (IC50, decrease in canonical junction mRNA)
# [8] = Table 2A, THP, MYB alternative junction (AJ) mRNA, read-out: MYB AJ (AC50, increase in alternative junction mRNA)
# [9] = Table 2A, THP, MYB canonical junction (CJ) mRNA, read-out: MYB CJ (IC50, decrease in canonical junction mRNA)
# [10] = decrease in CJ mRNA levels, canonical junction qPCR, gene panel
# [11] = Table 2A (THP), AJ mRNA increase, read-out: HTT AJ (increase in alternative junction mRNA, AC50)
# [12] = Table 2A (THP), CJ mRNA decrease, read-out: HTT CJ (decrease in canonical junction mRNA, IC50)
# [13] = Table 2A (THP), AJ mRNA increase, read-out: MYB AJ (increase in alternative junction mRNA, AC50)
# [14] = Table 2A (THP), CJ mRNA decrease, read-out: MYB CJ (decrease in canonical junction mRNA, IC50)
# [15] = decrease in canonical junction (CJ) mRNA, gene panel qPCR, Table 3
Compound,GI50 [1],"pIC50 [2, 7]","pIC50 [3, 9]","pIC50 [4, 10]","pIC50 [5, 10]","pIC50 [2, 12]","pIC50 [3, 14]","pIC50 [4, 15]","pIC50 [5, 15]","AC50 [2, 6]","AC50 [3, 8]","AC50 [2, 11]","AC50 [3, 13]"
COc1nc2c(C(=O)Nc3cccc4c3cnn4C)ccc(N3C[C@H](C)N[C@@H](C)C3)c2s1 [Compound 715],100 to 1000 nM,< 5.00,< 5.00,< 5.00,< 5.00,–,–,–,–,> 10000 nM,> 10000 nM,–,–
"Cn1cc2cc(NC(=O)c3cc(F)c(N4CCC(NC5CC5)CC4)c4cn(C)nc34)cc(F)c2n1 [Compound 708, 4-[4-(cyclopropylamino)-1-piperidyl]-5-fluoro-N-(7-fluoro-2-methyl-indazol-5-yl)-2-methyl-indazole-7-carboxamide]",1000 to 10000 nM,< 5.00,< 5.00,< 5.00,< 5.00,–,–,–,–,> 10000 nM,1000 to 10000 nM,–,–
Cc1cn2cc(NC(=O)c3ccc(N4CCC5(CCCN5)CC4)c4cn(C)nc34)nc2c(CNS(C)(=O)=O)n1 [Compound 826],> 10000 nM,< 5.00,< 5.00,< 5.00,< 5.00,–,–,–,–,> 10000 nM,> 10000 nM,–,–
"COc1cc2c(N3CCC(NC4CC4)CC3)ccc(C(=O)Nc3cn4cc(C)nc4c(F)c3OC)n2n1 [Compound 688, 4-[4-(cyclopropylamino)-1-piperidyl]-N-(8-fluoro-7-methoxy-2-methyl-imidazo[1,2-a]pyridin-6-yl)-2-methoxy-pyrazolo[1,5-a]pyridine-7-carboxamide]",< 100 nM,> 7.00,> 7.00,> 7.00,> 7.00,–,–,–,–,100 to 1000 nM,< 100 nM,–,–
COc1nc2c(C(=O)Nc3cc(F)c4nc(CO)cn4c3)ccc(N3C[C@H](C)N[C@@H](C)C3)c2s1 [Compound 810],< 100 nM,5.00 to 6.00,> 7.00,> 7.00,5.00 to 6.00,–,–,–,–,100 to 1000 nM,< 100 nM,–,–
"COc1cc2nn(C)cc2cc1NC(=O)c1ccc(N2CCC(NC3CC3)CC2)c2cc(CF)nn12 [Compound 625, 4-[4-(cyclopropylamino)-1-piperidyl]-2-(fluoromethyl)-N-(6-methoxy-2-methyl-indazol-5-yl)pyrazolo[1,5-a]-pyridine-7-carboxamide]",100 to 1000 nM,6.00 to 7.00,> 7.00,> 7.00,6.00 to 7.00,–,–,–,–,100 to 1000 nM,< 100 nM,–,–
"CCNC1CCN(c2ccc(C(=O)Nc3cn4cc(C)nc(C)c4n3)n3nc(C)cc23)CC1 [Compound 615, N-(6,8-dimethylimidazo[1,2-a]-pyrazin-2-y1)-4-[4-(ethylamino)-1-piperidyl]-2-methyl-pyrazolo[1,5-a]-pyridine-7-carboxamide]",1000 to 10000 nM,5.00 to 6.00,6.00 to 7.00,6.00 to 7.00,5.00 to 6.00,–,–,–,–,1000 to 10000 nM,1000 to 10000 nM,–,–
CNCC1CCN(c2ccc(C(=O)Nc3cc4cn(C)nc4cc3OC)c3nn(C)cc23)C1 (stereo not drawn) [Compound 538],1000 to 10000 nM,–,–,–,–,< 5.00,6.00 to 7.00,6.00 to 7.00,< 5.00,–,–,> 10000 nM,100 to 1000 nM
"CCNC1CCN(c2ccc(C(=O)Nc3cc4cn(C)nc4cc3OC)c3nn(C)cc23)C(C)(C)C1 (stereo not drawn) [Compound 737, 4-[4-(ethylamino)-2,2-dimethyl-1-piperidyl]-N-(6-methoxy-2-methyl-indazol-5-yl)-2-methyl-indazole-7-carboxamide]",1000 to 10000 nM,< 5.00,< 5.00,< 5.00,< 5.00,–,–,–,–,> 10000 nM,> 10000 nM,–,–

# Second part, led by results:
GI50 [1],"pIC50 [2, 7]","pIC50 [3, 9]","pIC50 [4, 10]","pIC50 [5, 10]","pIC50 [2, 12]","pIC50 [3, 14]","pIC50 [4, 15]","pIC50 [5, 15]",Compound,"AC50 [2, 6]","AC50 [3, 8]","AC50 [2, 11]","AC50 [3, 13]"
> 10000 nM,< 5.00,6.00 to 7.00,6.00 to 7.00,< 5.00,–,–,–,–,"Cc1cn2cc(NC(=O)c3cnc(N4CCC(NC5CC5)CC4)c4cn(C)nc34)nc2c(C)n1 [Compound 609, 4-[4-(cyclopropylamino)-1-piperidyl]-N-(6,8-dimethylimidazo [1,2-a]pyrazin-2-yl)-2-methyl-pyrazolo[4,3-c]pyridine-7-carboxamide]",> 10000 nM,< 100 nM,–,–
1000 to 10000 nM,< 5.00,< 5.00,< 5.00,< 5.00,–,–,–,–,Cc1cn2cc(NC(=O)c3ccc(N4CCC(NC5CC5)CC4)c4cn(C)nc34)nc2c(Cc2cnc(Cl)s2)n1 [Compound 781],> 10000 nM,> 10000 nM,–,–
< 100 nM,–,–,–,–,6.00 to 7.00,> 7.00,> 7.00,6.00 to 7.00,"Cc1cn2cc(NC(=O)c3c(F)cc(N4CCC(NC5CC5)CC4)c4cn(C)nc34)c(OCC3CC3)c(F)c2n1 [Compound 321, 4-[4-(cyclopropylamino)-1-piperidyl]-N-[7-(cyclopropylmethoxy)-8-fluoro-2-methyl-imidazo[1,2-a]-pyridin-6-yl]-6-fluoro-2-methyl-indazole-7-carboxamide]",–,–,< 100 nM,< 100 nM
1000 to 10000 nM,< 5.00,< 5.00,< 5.00,< 5.00,–,–,–,–,CCNCc1nc(C)cn2cc(NC(=O)c3ccc(N4CCC(NC5CC5)CC4)c4cn(C)nc34)nc12 [Compound 812],> 10000 nM,> 10000 nM,–,–
100 to 1000 nM,–,–,–,–,6.00 to 7.00,6.00 to 7.00,6.00 to 7.00,6.00 to 7.00,Cc1cn2cc(NC(=O)c3ccc(N4CC[C@H]5CNCC[C@H]54)c4cn(C)nc34)nc2c(C)n1 (stereo in doubt) [Compound 502],–,–,100 to 1000 nM,100 to 1000 nM
> 10000 nM,–,–,–,–,< 5.00,< 5.00,< 5.00,< 5.00,"Cc1cn2cc(NC(=O)c3ccc(N4CCC(NC5CC5)CC4)c4cn(C)nc34)nc2c(-c2cnsc2)n1 [Compound 492, 4-[4-(cyclopropylamino)-1-piperidyl]-N-(8-isothiazol-4-yl-6-methyl-imidazo[1,2-a]-pyrazin-2-yl)-2-methyl-indazole-7-carboxamide]",–,–,> 10000 nM,> 10000 nM
> 10000 nM,< 5.00,< 5.00,< 5.00,< 5.00,–,–,–,–,"Cc1cn2cc(NC(=O)c3ccc(N4CCC(NC5CC5)CC4)c4cn(C)nc34)nc2c(CNS(=O)(=O)CCO)n1 [Compound 752, 4-[4-(cyclopropylamino)-1-piperidyl]-N-[8-[(2-hydroxyethylsulfonylamino)methyl]-6-methyl-imidazo[1,2-a]pyrazin-2-yl]-2-methyl-indazole-7-carboxamide]",> 10000 nM,> 10000 nM,–,–
100 to 1000 nM,–,–,–,–,< 5.00,> 7.00,> 7.00,< 5.00,"CCNC1CCN(c2cc(F)c(C(=O)Nc3cn4cc(C)nc(Cl)c4n3)c3nn(C)cc23)CC1 [Compound 391, N-(8-chloro-6-methyl-imidazo[1,2-a]-pyrazin-2-yl)-4-[4-(ethylamino)-1-piperidyl]-6-fluoro-2-methyl-indazole-7-carboxamide]",–,–,> 10000 nM,< 100 nM
100 to 1000 nM,–,–,–,–,6.00 to 7.00,6.00 to 7.00,6.00 to 7.00,6.00 to 7.00,"Cc1nc(C)c2nc(NC(=O)c3ccc(N4CCC(NC5CC5)CC4)c4cn(C)nc34)cn2c1C [Compound 495, 4-[4-(cyclopropyl-amino)-1-piperidyl]-2-meth-yl-N-(5,6,8-trimethylimi-dazo-[1,2-a]pyrazin-2-yl)-indazole-7-carboxamide]",–,–,100 to 1000 nM,100 to 1000 nM
